Results published in patent US5766875A, “Metabolic monitoring of cells in a microplate reader” (priority 1995, dated 1998).
Where a name gives a salt, the structure may show the parent alone. Read-outs that look alike come from different tables or passages of the source.

Tests used:
[1] = Redox Indicators; cited from earlier work
M1WT3 cells = assay: Carbachol stimulation of M1WT3 cells, extracellular acidification rate in a THERMOmax microplate reader (Example 8); format: cell-based; details: for ΔpH/Sec: mean of triplicate
Method: The M1WT3 cells used for the following experiments were obtained from the American Type Culture Collection (No. CRL 1985). These cells were a line of CHO-K1 cells transfected with the gene for muscarinic receptors in order to provide cells responsive to cholinergic agonists, such as Carbachol. The M1WT3 cells were grown in Ham's F12 medium with 50 μg/ml […] (Geneticin), 10% fetal bovine serum, […], 1.0 mg/L streptomycin and 1000 units/L penicillin (growing medium) under 5% CO2 at 37° C.
To initiate growth, 5×10^4 M1WT3 cell/well (200 μL/well) were sterilely plated in selected individual wells of a flat bottom 96-well microplate. The selected wells were comprised of the inner 60 wells. At least 3 of the inner wells, however, were left without cells to be used as control wells. The entire microplate then was covered with a loosely-fitting plastic cover that allowed gas exchange to the wells and the microplate was incubated at 37° C. for approximately 24 hours to allow cells to attach to bottom of each selected well with cells.
Twelve hours prior to measuring extracellular acidification the growing media was aspirated off with a vacuum system and replaced with 200 μL of starving media (growing media with 1 mg/ml bovine serum albumin in place of the 10% fetal bovine serum) and the cells were again placed under 5% CO2 at 37° C. The microplate was then incubated for 12 hours. Within 30-60 minutes prior to monitoring the rates of extracellular acidification, the starving medium was aspirated off, the wells were rinsed with approximately 200 μL simple indicator medium (Table 2 components) and then filled with 200 μL of simple indicator medium. All media was warmed to 37° C. before addition to the cells.
The light absorbance of the individual wells of the 96-well microplate was read in a THERMOmax™ microplate absorbance reader modified to record the ratio of optical density at two wavelengths (560 nm/420 nm), kinetically at 37° C. for 15 minutes with automix on. The automix feature is described in the Operator's Manual for the THERMOmax™ instrument (Catalog No. 0112-0014) of Molecular Devices Corporation, Menlo Park, Calif. The automix feature provides for uniform mixing of the contents of each well of the multiassay plate for about 5 seconds, followed by measurement of optical density at the first wavelength (in this case 560 nm) in about 5 seconds, followed by a change in interference filter in about 1 second, followed by measurement of optical density at the second wavelength (in this case 420 nm) in about 5 seconds. Thus, all optical density measurements are completed within 11 seconds following termination of the agitation step and the time elapsed for any one well between measuring the optical density at the first and second wavelengths was 6 seconds. This was the minimum time between reading optical density at the first and second wavelengths possible with the THERMOmax™ instrument. Preferably the readings at the first and second wavelengths are made simultaneously.
Additionally, the contents of the microplate wells were not agitated between reading optical density at the first and second wavelengths so that the light scattering effects of the cells tended to be the same for the optical density measurements made at the first and second wavelengths for any one well. […] The reading cycle, with agitation, measuring absorbance at the first wavelength of light, changing the filter, and reading the absorbance at the second wavelength of light, was repeated at the rate of 3 cycles per minute (i.e. every 20 seconds).
At the end of the 15 minutes the reading cycles were stopped, the microplate was removed and the media was quickly aspirated off and replaced with simple indicator media containing a cell-affecting agent, in this case 0 to 300 μM Carbachol. The reading cycles then were repeated, as above, for two consecutive 15 minute data collection periods followed by one final 30 minute data collection period. […]

[2] = Apparent pH change with temperature of buffering systems as indicated by phenol red; format: physicochemical; details: phenol red pH indicator, 50 mM total buffer

Molecule: O=C1C(Cl)=CC(=Nc2ccc(O)cc2)C=C1Cl [2,6-Dichloroindophenol Sodium Salt]
- Potential at pHOa [1]: 0.67 Volts

Molecule: COc1cc(-c2ccc(N)c(OC)c2)ccc1N.Cl.Cl [3,3'-Dimethoxybenzidine Dihydrochloride]
- Potential at pHOa [1]: 0.76 Volts

Molecule: COc1cc(-c2ccc(N)c(OC)c2)ccc1N [3,3'-Dimethoxybenzidine]
- Potential at pHOa [1]: 0.76 Volts

Molecule: O=S(=O)([O-])c1ccc(Nc2ccccc2)cc1.O=S(=O)([O-])c1ccc(Nc2ccccc2)cc1.[Ba+2] [Barium Diphenylaminesulfonate]
- Potential at pHOa [1]: 0.85 Volts

Molecule: C[N+](C)(C)CCOC(N)=O [Carbachol]
- ΔProtons/Cell·Sec minus 0 Carbachol (M1WT3 cells; 3 μM, First 15 min): 1.00E + 07 ΔProtons/Cell·Sec
- ΔpH/Sec (M1WT3 cells; 3 μM, First 15 min): 7.1534E - 05 ΔpH/Sec
- ΔProtons/Cell·Sec minus 0 Carbachol (M1WT3 cells; 3 μM, Last 30 min): 1.44E - 07 ΔProtons/Cell·Sec
- ΔpH/Sec (M1WT3 cells; 3 μM, Last 30 min): 5.0490E - 05 ΔpH/Sec
- ΔProtons/Cell·Sec minus 0 Carbachol (M1WT3 cells; 3 μM, Second 15 min): 1.12E - 07 ΔProtons/Cell·Sec
- ΔpH/Sec (M1WT3 cells; 3 μM, Second 15 min): 5.2542E - 05 ΔpH/Sec
- ΔProtons/Cell·Sec minus 0 Carbachol (M1WT3 cells; 10 μM, First 15 min): 1.44E + 07 ΔProtons/Cell·Sec
- ΔpH/Sec (M1WT3 cells; 10 μM, First 15 min): 7.5928E - 05 ΔpH/Sec
- ΔProtons/Cell·Sec minus 0 Carbachol (M1WT3 cells; 10 μM, Last 30 min): 2.10E - 07 ΔProtons/Cell·Sec
- ΔpH/Sec (M1WT3 cells; 10 μM, Last 30 min): 5.7103E - 05 ΔpH/Sec
- ΔpH/Sec (M1WT3 cells; 10 μM, Second 15 min): 5.6378E - 05 ΔpH/Sec
- ΔProtons/Cell·Sec minus 0 Carbachol (M1WT3 cells; 30 μM, First 15 min): 1.12E + 07 ΔProtons/Cell·Sec
- ΔpH/Sec (M1WT3 cells; 30 μM, First 15 min): 7.2713E - 05 ΔpH/Sec
- ΔpH/Sec (M1WT3 cells; 30 μM, Last 30 min): 5.7641E - 05 ΔpH/Sec
- ΔProtons/Cell·Sec minus 0 Carbachol (M1WT3 cells; 30 μM, Second 15 min): 1.47E - 07 ΔProtons/Cell·Sec
- ΔpH/Sec (M1WT3 cells; 30 μM, Second 15 min): 5.6101E - 05 ΔpH/Sec
- ΔProtons/Cell·Sec minus 0 Carbachol (M1WT3 cells; 300 μM, First 15 min): 6.76E + 06 ΔProtons/Cell·Sec
- ΔpH/Sec (M1WT3 cells; 300 μM, First 15 min): 8.8294E - 05 ΔpH/Sec
- ΔpH/Sec (M1WT3 cells; 300 μM, Last 30 min): 5.2560E - 05 ΔpH/Sec
- ΔProtons/Cell·Sec minus 0 Carbachol (M1WT3 cells; 300 μM, Second 15 min): 1.11E - 07 ΔProtons/Cell·Sec
- ΔpH/Sec (M1WT3 cells; 300 μM, Second 15 min): 5.2420E - 05 ΔpH/Sec
- activation at 3 µM (M1WT3 cells; 0.25 h, 3 μM, First 15 min, read-out: % Change compared to pre-Carbachol): 5.94%
- activation at 3 µM (M1WT3 cells; 0.25 h, 3 μM, First 15 min, read-out: % Change compared to pre-Carbachol minus 0 Carbachol): 12.6%
- activation at 10 µM (M1WT3 cells; 0.25 h, 10 μM, First 15 min, read-out: % Change compared to pre-Carbachol): 20%
- activation at 10 µM (M1WT3 cells; 0.25 h, 10 μM, First 15 min, read-out: % Change compared to pre-Carbachol minus 0 Carbachol): 26.6%
- activation at 30 µM (M1WT3 cells; 0.25 h, 30 μM, First 15 min, read-out: % Change compared to pre-Carbachol): 18.6%
- activation at 30 µM (M1WT3 cells; 0.25 h, 30 μM, First 15 min, read-out: % Change compared to pre-Carbachol minus 0 Carbachol): 25.3%
- activation at 300 µM (M1WT3 cells; 0.25 h, 300 μM, First 15 min, read-out: % Change compared to pre-Carbachol): 19.4%
- activation at 300 µM (M1WT3 cells; 0.25 h, 300 μM, First 15 min, read-out: % Change compared to pre-Carbachol minus 0 Carbachol): 26.1%
- activation at 3 µM (M1WT3 cells; 0.5 h, 3 μM, Last 30 min, read-out: % Change compared to pre-Carbachol): -25.2%
- activation at 3 µM (M1WT3 cells; 0.5 h, 3 μM, Last 30 min, read-out: % Change compared to pre-Carbachol minus 0 Carbachol): 20%
- activation at 3 µM (M1WT3 cells; 0.5 h, 3 μM, Second 15 min, read-out: % Change compared to pre-Carbachol): -22.2%
- activation at 3 µM (M1WT3 cells; 0.5 h, 3 μM, Second 15 min, read-out: % Change compared to pre-Carbachol minus 0 Carbachol): 15%
- activation at 10 µM (M1WT3 cells; 0.5 h, 10 μM, Last 30 min, read-out: % Change compared to pre-Carbachol): -9.77%
- activation at 10 µM (M1WT3 cells; 0.5 h, 10 μM, Last 30 min, read-out: % Change compared to pre-Carbachol minus 0 Carbachol): 35.5%
- activation at 10 µM (M1WT3 cells; 0.5 h, 10 μM, Second 15 min, read-out: % Change compared to pre-Carbachol): -10.9%
- activation at 10 µM (M1WT3 cells; 0.5 h, 10 μM, Second 15 min, read-out: % Change compared to pre-Carbachol minus 0 Carbachol): 26.3%
- activation at 30 µM (M1WT3 cells; 0.5 h, 30 μM, Last 30 min, read-out: % Change compared to pre-Carbachol): -5.63%
- activation at 30 µM (M1WT3 cells; 0.5 h, 30 μM, Last 30 min, read-out: % Change compared to pre-Carbachol minus 0 Carbachol): 39.6%
- activation at 30 µM (M1WT3 cells; 0.5 h, 30 μM, Second 15 min, read-out: % Change compared to pre-Carbachol): -8.46%
- activation at 30 µM (M1WT3 cells; 0.5 h, 30 μM, Second 15 min, read-out: % Change compared to pre-Carbachol minus 0 Carbachol): 28.8%
- activation at 300 µM (M1WT3 cells; 0.5 h, 300 μM, Last 30 min, read-out: % Change compared to pre-Carbachol): -8.08%
- activation at 300 µM (M1WT3 cells; 0.5 h, 300 μM, Last 30 min, read-out: % Change compared to pre-Carbachol minus 0 Carbachol): 37.2%
- activation at 300 µM (M1WT3 cells; 0.5 h, 300 μM, Second 15 min, read-out: % Change compared to pre-Carbachol): -8.33%
- activation at 300 µM (M1WT3 cells; 0.5 h, 300 μM, Second 15 min, read-out: % Change compared to pre-Carbachol minus 0 Carbachol): 28.9%

Molecule: O=C(O)CC(O)(CC(=O)O)C(=O)O [Citrate buffer]
- apparent change in pH with change in temperature ([2]; with 1.0M NaCl added): 8.06 millipH/°C.

Molecule: O.O.[C-]#N.[C-]#N.[Fe+2].c1cnc2c(c1)ccc1cccnc12.c1cnc2c(c1)ccc1cccnc12 [Dicyanobis(1,10-phenanthroline)Iron]
- Potential at pHOa [1]: 1.41 Volts

Molecule: c1ccc(Nc2ccccc2)cc1 [Diphenylamine]
- Potential at pHOa [1]: 0.76 Volts

Molecule: O=C(O)CN(CCN(CC(=O)O)CC(=O)O)CC(=O)O [EDTA, Ethylenedinitrilo-Tetraacetic Acid]
- apparent change in pH with change in temperature ([2]; equilibrium with CO2 in air): less than 1 millipH/°C.

Molecule: O=S(=O)(O)CCN1CCN(CCO)CC1 [HEPES, N-[2-Hydroxyethyl]piperazine-N'-[2-ethanesulfonic acid]]
- apparent change in pH with change in temperature ([2]; equilibrium with CO2 in air): -3.92 millipH/°C.

Molecule: O=S(=O)(O)CCN1CCOCC1 [MES, 2-[N-Morpholino]ethanesulfonic acid]
- apparent change in pH with change in temperature ([2]; equilibrium with CO2 in air): -4.74 millipH/°C.

Molecule: O=S(=O)(O)CCCN1CCOCC1 [MOPS, 3-[N-Morpholino]propanesulfonic acid]
- apparent change in pH with change in temperature ([2]; equilibrium with CO2 in air): less than 1 millipH/°C.

Molecule: CN(C)c1ccc2nc3ccc(=[N+](C)C)cc-3sc2c1 [Methylene Blue]
- Potential at pHOa [1]: 0.53 Volts

Molecule: CN(C)c1ccc(N)cc1 [N,N-Dimethyl-p-phenylanediamine]
- Potential at pHOa [1]: 0.76 Volts

Molecule: CN(C)c1ccc(N=C2C=CC(=O)C=C2)cc1 [N,N-Dimethylindoaniline]
- Potential at pHOa [1]: 0.22 Volts

Molecule: COc1ccc(Nc2ccc(N)cc2)cc1 [N-(p-Methoxyphenyl)-p-phenylanediamine Hydrochloride]
- Potential at pHOa [1]: 0.71 Volts

Molecule: O=C(O)c1ccccc1Nc1ccccc1 [N-Phenylanthranilic Acid]
- Potential at pHOa [1]: 1.08 Volts

Molecule: Cc1cc2nc3ccc(N(C)C)cc3nc2cc1N [Neutral Red]
- Potential at pHOa [1]: -0.24 Volts

Molecule: CC[N+](CC)=c1ccc2nc3c(cc(N)c4ccccc43)oc-2c1 [Nile Blue A]
- Potential at pHOa [1]: 0.29 Volts

Molecule: O=S(=O)(O)CCCNC(CO)(CO)CO [TAPS, 3-{[tris-(hydroxymethyl)-methyl]-amino}-propanesulfonicacid]
- apparent change in pH with change in temperature ([2]; equilibrium with CO2 in air): -12.07 millipH/°C.

Molecule: Nc1ccc2nc3ccc(N)cc3[s+]c2c1 [Thionin]
- Potential at pHOa [1]: 0.56 Volts

Molecule: O=S(=O)([O-])[O-].[Fe+2].c1cnc2c(c1)ccc1cccnc12.c1cnc2c(c1)ccc1cccnc12.c1cnc2c(c1)ccc1cccnc12 [Tris(1,10-phenanthroline)Iron(R) Sulfate]
- Potential at pHOa [1]: 1.14 Volts

Molecule: CCN=C1C=CC(=C(c2ccc(NCC)c(C)c2)c2ccc(S(=O)(=O)O)cc2S(=O)(=O)O)C=C1C [Xylene Cyanol FF]
- Potential at pHOa [1]: 1.00 Volts

Molecule: Cc1cc(-c2ccc(N)c(C)c2)ccc1N [o-Tolidine]
- Potential at pHOa [1]: 0.87 Volts

Molecule: CCOc1ccc(N=Nc2ccc(N)cc2N)cc1 [p-Ethoxyphenylazo-m-phenylanediamine Monohydrochloride]
- Potential at pHOa [1]: 0.76 Volts

Molecule: Brilliant Cresyl Blue
- Potential at pHOa [1]: 0.58 Volts

Molecule: Diphenylaminosulfonic Acid Sodium Salt
- Potential at pHOa [1]: 0.85 Volts

Molecule: N,N-Diphenylbenzidine
- Potential at pHOa [1]: 0.76 Volts
